Measured values from ChEMBL document CHEMBL1201862, “PubChem BioAssay data set” (2004).
Calls of active or inactive are those of the source. Rule as the data show it: actives have a measured EC50 and inactives only a lower limit.

test system: Streptococcus sp. 'group A'; test: Streptococcus pyogenes SK(-)GAS viability under kanamycin – luminescence, BacTiterGlo, confirmation, counter-screen for streptokinase expression inhibitor project, dose response (AID 1900); format: functional, organism-based

Row | Structure (SMILES) | EC50
1 | C[C@H]1COc2c(C3(N)CC3)c(F)cc3c(=O)c(C(=O)O)cn1c23 [PAZUFLOXACIN] | 7.22 µM (active)
2 | COc1ccc(Oc2nc(-c3ccccn3)ncc2OC)cc1 | > 150 µM (not active)
3 | CC(OC(=O)c1ccc(NC(=O)CC#N)cc1)C(=O)NC(=O)NC1CCCCC1 (centres undefined) | 57.5 µM (active)
4 | COc1cc(/C=N\NC(=O)c2ccc(Cn3cc(Br)c([N+](=O)[O-])n3)o2)cc(OC)c1O | 2.67 µM (active)
5 | CC(C)C1Cc2c(sc3[nH]c(=S)n(Cc4ccccc4)c(=O)c23)CO1 (centres undefined) | 2.15 µM (active)
6 | COc1ccc(C(=O)NCC(=O)OCCCOC(=O)CNC(=O)c2ccc(OC)c(OC)c2)cc1OC | > 150 µM (not active)
7 | COc1ccc(S(=O)(=O)N2CCN=C2SCc2cccc(C)c2)cc1 | > 150 µM (not active)
8 | Cc1ccc(/C=C/C2=NN(Cc3ccc(Cl)c(Cl)c3)C(=O)CC2)cc1 | 17.2 µM (active)
9 | Cc1ccc(NC(=S)N=Nc2c(O)[nH]c3ccccc23)cc1 | 1.22 µM (active)

target: T1, Heat shock factor protein 1 (Mus musculus, UniProt P38532); test: decrease of HSF1-responsive luciferase luminescence – cell-based, NIH3T3, dose retest, confirmation (AID 2382); format: functional;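 also: NIH3T3 fibroblasts with HSF1-driven luciferase reporter stressed by proteasome inhibitor MG132; luminescence from HSF1-driven luciferase expression after 8 hours of MG132 stress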
T1 sequence (P38532 whole entry): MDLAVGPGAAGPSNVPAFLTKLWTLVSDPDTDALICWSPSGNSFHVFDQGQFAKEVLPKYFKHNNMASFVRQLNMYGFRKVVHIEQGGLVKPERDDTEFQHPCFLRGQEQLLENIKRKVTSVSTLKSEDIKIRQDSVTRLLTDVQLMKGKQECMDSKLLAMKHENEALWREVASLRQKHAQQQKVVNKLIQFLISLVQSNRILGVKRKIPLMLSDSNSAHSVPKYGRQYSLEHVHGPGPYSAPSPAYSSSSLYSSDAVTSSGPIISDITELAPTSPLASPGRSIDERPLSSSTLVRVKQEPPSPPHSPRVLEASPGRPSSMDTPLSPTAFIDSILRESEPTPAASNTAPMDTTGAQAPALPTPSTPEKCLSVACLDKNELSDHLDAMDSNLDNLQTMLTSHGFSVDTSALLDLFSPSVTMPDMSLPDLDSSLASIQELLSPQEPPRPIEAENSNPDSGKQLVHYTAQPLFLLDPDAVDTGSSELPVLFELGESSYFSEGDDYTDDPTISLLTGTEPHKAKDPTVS

Row | Structure (SMILES) | EC50
10 | CCn1c2ccccc2n2c(=O)c(=O)n(CC(=O)Nc3ccc(C(C)C)cc3)nc12 | > 195 µM (not active)
11 | Cc1ccccc1CN1CCN(C(=O)CC(C)C)CC1 | > 195 µM (not active)
12 | CCOC(=O)N1CCC(NC(=O)CN2C(=O)CSc3nc(C)cc(C)c32)CC1 | > 195 µM (not active)
13 | COc1cccc(CN2CCC(n3nccc3NC(=O)CCCc3ccccc3)CC2)c1O | > 195 µM (not active)
14 | O=C(Nc1ccccc1)NC1CC2CCC(C1)N2 (centres undefined) | > 195 µM (not active)
15 | Fc1ccc(-c2cc(-c3ccccc3)nc(-n3cccn3)n2)cc1 | > 195 µM (not active)
16 | COC(=O)CCNC(=O)c1ccc2nc(Cc3ccc(OC)cc3)oc2c1 | > 195 µM (not active)
17 | COc1ccc(NC(=O)C(NC(=O)CNC(C)=O)c2ccc(C)cc2)cc1 (centres undefined) | > 195 µM (not active)
18 | Nc1nc(CSc2ncn(-c3ccccc3)n2)cs1 | > 195 µM (not active)
19 | NNC(=O)c1nn(-c2ccc(Cl)cc2)cc1O | 27 µM (active)
20 | c1ccn2c(SCc3ccc4c(c3)OCO4)nnc2c1 | > 195 µM (not active)
21 | Cc1cc(C)c(/N=C2\SCC(=O)N2Cc2ccco2)c(C)c1 | > 195 µM (not active)
22 | O=C(Nc1ccc2[nH]c(-c3cccnc3)nc2c1)c1ccccc1F | > 195 µM (not active)
23 | O=C(C1CCCN(S(=O)(=O)Cc2ccccc2)C1)N1CCc2ccccc21 (centres undefined) | > 195 µM (not active)
24 | Cc1ccc(/C=C(\NC(=O)c2ccccc2)C(=O)N2CCCC2C(=O)O)cc1 (centres undefined) | > 195 µM (not active)
25 | Cc1cc(OCC(=O)Nc2sc3c(c2C#N)CC(C)(C)NC3(C)C)c(C(C)C)cc1Cl | > 195 µM (not active)
26 | CCOC(=O)c1ccc(Cl)c(NC(=O)c2cccnc2)c1 | 30.8 µM (active)

target: T2, Streptokinase A (Streptococcus pyogenes serotype M1, UniProt P10520); test: viability-normalized secreted streptokinase activity reduction – plasminogen activation absorbance, OD405, dose response (AID 1914); format: functional, Streptococcus pyogenes M1 GAS;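 also: secreted streptokinase activity via plasminogen activation per viability signal from cell pellet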
T2 sequence (P10520 whole entry): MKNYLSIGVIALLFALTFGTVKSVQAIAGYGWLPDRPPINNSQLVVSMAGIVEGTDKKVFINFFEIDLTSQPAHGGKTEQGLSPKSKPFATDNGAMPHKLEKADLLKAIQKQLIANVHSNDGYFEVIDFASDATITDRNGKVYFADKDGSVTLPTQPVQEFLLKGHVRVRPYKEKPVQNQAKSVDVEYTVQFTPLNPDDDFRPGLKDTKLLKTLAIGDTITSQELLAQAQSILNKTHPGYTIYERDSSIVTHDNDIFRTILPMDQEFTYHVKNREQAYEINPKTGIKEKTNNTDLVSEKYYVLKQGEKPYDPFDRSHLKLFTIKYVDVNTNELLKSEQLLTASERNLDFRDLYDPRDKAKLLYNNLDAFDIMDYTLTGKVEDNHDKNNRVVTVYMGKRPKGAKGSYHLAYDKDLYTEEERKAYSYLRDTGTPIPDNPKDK

Row | Structure (SMILES) | EC50
27 | COc1ccc(Oc2nc(-c3ccccn3)ncc2OC)cc1 | > 150 µM (not active)
28 | CC(OC(=O)c1ccc(NC(=O)CC#N)cc1)C(=O)NC(=O)NC1CCCCC1 (centres undefined) | > 150 µM (not active)
29 | CC(C)C1Cc2c(sc3[nH]c(=S)n(Cc4ccccc4)c(=O)c23)CO1 (centres undefined) | > 150 µM (not active)
30 | COc1ccc(C(=O)NCC(=O)OCCCOC(=O)CNC(=O)c2ccc(OC)c(OC)c2)cc1OC | > 150 µM (not active)
31 | COc1ccc(S(=O)(=O)N2CCN=C2SCc2cccc(C)c2)cc1 | 46.6 µM (inconclusive)
32 | Cc1ccc(/C=C/C2=NN(Cc3ccc(Cl)c(Cl)c3)C(=O)CC2)cc1 | 24.3 µM (active)
33 | Cc1ccc(NC(=S)N=Nc2c(O)[nH]c3ccccc23)cc1 | > 150 µM (not active)

test system: not listed separately; test: Trypanosoma cruzi growth suppression in host cells – NIH3T3 host cells, beta-gal luminescence, confirmation (AID 2044); format: functional, cell-based;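 also: intracellular parasites grown in NIH/3T3 mouse fibroblasts as host cells; luminescent beta-galactosidase reporter signal from transgenic T. cruzi replicating inside host cells; inhibitors lower the luminescence signal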

Row | Structure (SMILES) | EC50
34 | Cc1ccc(NC(=S)N=Nc2c(O)[nH]c3ccccc23)cc1 | 2.17 µM (active)

test system: not listed separately; test: NIH3T3 cell viability loss – ATP luminescence, mouse fibroblasts, counter-screen, dose response (AID 2010); format: functional, cell-based;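 also: cells exposed to compound for about 90 hours before reading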

Row | Structure (SMILES) | EC50
35 | Cc1ccc(NC(=S)N=Nc2c(O)[nH]c3ccccc23)cc1 | 4.31 µM (active)

test system: Streptococcus; test: GAS UMAA2166 growth inhibition – luminescence, BacTiterGlo, counter-screen for streptokinase expression inhibitor project, dose response (AID 1915); format: functional, organism-based;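 also: potency for reduction of bacterial viability or growth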

Row | Structure (SMILES) | EC50
36 | C[C@H]1COc2c(C3(N)CC3)c(F)cc3c(=O)c(C(=O)O)cn1c23 [PAZUFLOXACIN] | 6.74 µM (active)
37 | COc1ccc(Oc2nc(-c3ccccn3)ncc2OC)cc1 | > 150 µM (not active)
38 | CC(OC(=O)c1ccc(NC(=O)CC#N)cc1)C(=O)NC(=O)NC1CCCCC1 (centres undefined) | > 150 µM (not active)
39 | COc1cc(/C=N\NC(=O)c2ccc(Cn3cc(Br)c([N+](=O)[O-])n3)o2)cc(OC)c1O | 4.9 µM (active)
40 | CC(C)C1Cc2c(sc3[nH]c(=S)n(Cc4ccccc4)c(=O)c23)CO1 (centres undefined) | 33.4 µM (active)
41 | COc1ccc(C(=O)NCC(=O)OCCCOC(=O)CNC(=O)c2ccc(OC)c(OC)c2)cc1OC | > 150 µM (not active)
42 | COc1ccc(S(=O)(=O)N2CCN=C2SCc2cccc(C)c2)cc1 | > 150 µM (not active)
43 | Cc1ccc(/C=C/C2=NN(Cc3ccc(Cl)c(Cl)c3)C(=O)CC2)cc1 | 50.6 µM (active)
44 | Cc1ccc(NC(=S)N=Nc2c(O)[nH]c3ccccc23)cc1 | 6.61 µM (active)
